From ChEMBL document CHEMBL1201862, “PubChem BioAssay data set” (2004)
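1) Cells in 96-well plates. 2) Compound, 48 h, 5 concentrations. 3) Linear interpolation between surrounding doses. 4) Unreached endpoint = highest concentration. Here, GI50 denotes the concentration required for 50% inhibition of growth.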 Active and inactive are the calls of the source. Rule as the data show it: active = GI50 up to about 1.1 µM and inactive = higher.

Experiments:
Assay in all cases: NCI-60 cell line screen, 48 h
LXFL 529 = tested on: LXFL 529
SR = tested on: SR
NCI-H460 = tested on: NCI-H460
OVCAR-3 = tested on: OVCAR-3
SN12C = tested on: SN12C
HT-29 = tested on: HT-29
SF-295 = tested on: SF-295
M19-MEL = tested on: M19-MEL
HCT-116 = tested on: HCT-116
XF498 = tested on: XF498
OVCAR-5 = tested on: OVCAR-5
SNB-19 = tested on: SNB-19
HOP-62 = tested on: HOP-62
SW-620 = tested on: SW-620
NCI-H23 = tested on: NCI-H23
SF-268 = tested on: SF-268
SF-539 = tested on: SF-539
RPMI-8226 = tested on: RPMI-8226
RXF 631 = tested on: RXF 631
TK-10 = tested on: TK-10
U-251 = tested on: U-251
OVCAR-8 = tested on: OVCAR-8
SNB-78 = tested on: SNB-78
SK-OV-3 = tested on: SK-OV-3
CCRF-CEM = tested on: CCRF-CEM
Malme-3M = tested on: Malme-3M
SK-MEL-2 = tested on: SK-MEL-2
COLO 205 = tested on: COLO 205
UACC-62 = tested on: UACC-62
DMS-273 = tested on: DMS-273
HOP-18 = tested on: HOP-18
DLD-1 = tested on: DLD-1
DMS-114 = tested on: DMS-114
EKVX = tested on: EKVX
OVCAR-4 = tested on: OVCAR-4
MOLT-4 = tested on: MOLT-4
KM-20L2 = tested on: KM-20L2
NCI-H522 = tested on: NCI-H522
CAKI-1 = tested on: CAKI-1
RXF 393 = tested on: RXF 393
ACHN = tested on: ACHN
A549 = tested on: A549
HL-60 = tested on: HL-60
786-0 = tested on: 786-0
SK-MEL-5 = tested on: SK-MEL-5
LOX IMVI = tested on: LOX IMVI
HCC 2998 = tested on: HCC 2998
HOP-92 = tested on: HOP-92
SK-MEL-28 = tested on: SK-MEL-28
SNB-75 = tested on: SNB-75
K562 = tested on: K562
KM12 = tested on: KM12
NCI-H226 = tested on: NCI-H226
M14 = tested on: M14
UO-31 = tested on: UO-31
UACC-257 = tested on: UACC-257

Measured: GI50

CN(C)c1ccc(C=C2C(=O)OC(C)(C)OC2=O)cc1Br
inactive: LXFL 529 > 100 µM | SR 59.6 µM | NCI-H460 > 100 µM | OVCAR-3 > 100 µM | SN12C > 100 µM | HT-29 > 100 µM | SF-295 > 100 µM | M19-MEL > 100 µM | HCT-116 48.9 µM | XF498 > 100 µM | OVCAR-5 > 100 µM | SNB-19 > 100 µM | HOP-62 > 100 µM | SW-620 > 100 µM | NCI-H23 > 100 µM | SF-268 > 100 µM | SF-539 > 100 µM | RPMI-8226 > 100 µM | RXF 631 > 100 µM | TK-10 > 100 µM | U-251 > 100 µM | OVCAR-8 > 100 µM | SNB-78 > 10 µM | SK-OV-3 > 100 µM | CCRF-CEM > 100 µM | Malme-3M > 100 µM | SK-MEL-2 > 100 µM | COLO 205 > 100 µM | UACC-62 > 100 µM | DMS-273 > 100 µM | HOP-18 > 100 µM | DLD-1 > 100 µM | DMS-114 > 100 µM | EKVX > 100 µM | OVCAR-4 > 100 µM | MOLT-4 > 100 µM | KM-20L2 > 100 µM | NCI-H522 > 100 µM | CAKI-1 > 100 µM | RXF 393 > 100 µM | ACHN > 100 µM | A549 > 100 µM | HL-60 41.1 µM | 786-0 > 100 µM | SK-MEL-5 > 100 µM | LOX IMVI > 100 µM | HCC 2998 > 100 µM | HOP-92 29.4 µM | SK-MEL-28 > 100 µM | SNB-75 29.5 µM | K562 82.6 µM | KM12 > 100 µM | NCI-H226 > 100 µM | M14 > 100 µM | UO-31 > 100 µM | UACC-257 > 100 µM
